Source: patent US20260232666A1, “COMPOSITIONS AND METHODS FOR INHIBITION OF RAS” (TheRas, Inc., priority 2023, published 2026)

Experiments:
pERK in NCI-H358 cells = assay: Cell-based pERK HTRF assay (pERK inhibition in H358 cells); settings: 30 min incubation
How it was run: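 NCI-H358 cells were seeded at 4×10^4 cells/well in RPMI/10% FBS, then treated next day for 30 min at 0.25% DMSO (9-point, 3-fold series from 75 μM). Lysates were read by HTRF (d2/Eu cryptate antibody pair, 615 nm emission) after 4–24 h at room temperature to give pERK IC50.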

[1] = target: T1, GppNHp-loaded KRAS4b (amino acids 1-169) G12C/C118S protein (Homo sapiens, UniProt P01116, C118S/G12C); assay: Covalent cysteine 12 modification by MALDI-TOF MS, GppNHp-loaded KRAS G12C; format: binding; settings: 15 minutes reaction time point
T1 construct: KRAS4b (amino acids 1-169) G12C/C118S protein; made in house
How it was run: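 Covalent labelling is scored at 15 min by MALDI-TOF mass spectrometry, using 1 μM protein with compound at a 1:2.5 protein-to-compound ratio at room temperature.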

Row | SMILES | IC50 (pERK in NCI-H358 cells; Homo sapiens, NCI-H358, 0.5 h) [nM] | GppNHp-KRAS G12C percent of modification [1] | IC50 (pERK in NCI-H358 cells) [nM]
1 | C=CC(=O)N1CC[C@@H](N(CC)c2nc(OC[C@@]34CCCN3C[C@H](OC)C4)nc3cc(-c4ccc(F)c5sc(N)c(C#N)c45)c(F)cc23)[C@H]1C [Compound 149] | < 100 | A (percent of modification ≥70%) | 
2 | C=CC(=O)N1C[C@H](N(C)c2nc(OC[C@@H]3CCCN3C)nc3c(F)c(-c4ccc(F)c5sc(N)c(C#N)c45)c(C(F)(F)F)cc23)C[C@@H]1C [Compound 153] | < 100 | A (percent of modification ≥70%) | 
3 | C=CC(=O)N1C[C@H](N(C)c2nc(OC[C@@]34CCCN3C[C@H](F)C4)nc3cc(-c4ccc(F)c5sc(N)c(C#N)c45)c(F)cc23)C[C@H]1C [Compound 148] | < 100 | A (percent of modification ≥70%) | 
4 | C=CC(=O)N1CC[C@@H](N(C)c2nc(OC[C@@H]3C[C@@H](F)CN3C)nc3c(F)c(-c4ccc(F)c5sc(N)c(C#N)c45)c(C(F)(F)F)cc23)[C@@H]1C [Compound 32] | < 100 | A (percent of modification ≥70%) | 
5 | C=CC(=O)N1CC[C@@H](N(C)c2nc(OC[C@@H]3CCCN3C)nc3c(F)c(-c4ccc(F)c5sc(N)c(C#N)c45)c(Cl)cc23)[C@H]1C (atropisomer, axis not shown) [Compound 118] |  | A (percent of modification ≥70%) | < 100
6 | C=CC(=O)N1CC[C@H](N(CC)c2nc(OC[C@@]34CCCN3C[C@H](F)C4)nc3c(F)c(-c4ccc(F)c5sc(N)c(C#N)c45)c(C(F)(F)F)cc23)C1 (atropisomer, axis not shown) [Compound 171] | < 100 | C (10%≤percent of modification <50%) | 
7 | C=CC(=O)N1CC[C@@H](N(C)c2nc(OC[C@@H]3C[C@@H](OC)CN3C)nc3c(F)c(-c4ccc(F)c5sc(N)c(C#N)c45)c(C(F)(F)F)cc23)[C@@H]1C [Compound 33] | < 100 | A (percent of modification ≥70%) | 
8 | C=CC(=O)N1CC[C@@H](N(C)c2nc(OC[C@@]34CCCN3C[C@H](F)C4)nc3c(F)c(-c4nc(N)cc(C)c4C(F)(F)F)ccc23)[C@H]1C [Compound 115] | 100 to 1000 | A (percent of modification ≥70%) | 
9 | C=CC(=O)N1CC[C@@H](N(C)c2nc(OC[C@@H]3C[C@@H](OC)CN3CC)nc3c(F)c(-c4ccc(F)c5sc(N)c(C#N)c45)c(C(F)(F)F)cc23)[C@@H]1C [Compound 101] | < 100 | A (percent of modification ≥70%) | 
10 | C=CC(=O)N1CC[C@@H](N(C)c2nc(OC[C@@H]3C[C@@H](F)CN3C)nc3c(F)c(-c4nc(N)cc(C)c4C(F)(F)F)c(C(F)(F)F)cc23)[C@H]1C [Compound 145] | 100 to 1000 | B (50≤percent of modification <70%) | 
11 | C=CC(=O)N1CC[C@@H](N(CC)c2nc(OC[C@@H]3C[C@@H](F)CN3C)nc3c(F)c(-c4ccc(F)c5sc(N)c(C#N)c45)c(C(F)(F)F)cc23)[C@H]1C (atropisomer, axis not shown) [Compound 114] |  | D (percent of modification <10%) | > 1000
12 | C=CC(=O)N1CCC(N(CC)c2nc(OC[C@@]34CCCN3C[C@H](F)C4)nc3c(F)c(-c4ccc(F)c5sc(N)c(C#N)c45)ccc23)[C@H]1CC (some centres unmarked) [Compound 11] | 100 to 1000 | A (percent of modification ≥70%) | 
13 | C=CC(=O)N1CC[C@@H](N(C)c2nc(OC[C@@]34CCCN3C[C@H](F)C4)nc3cc(-c4nc(N)cc(C)c4C(F)(F)F)c(F)cc23)[C@H]1C [Compound 110] | 100 to 1000 | A (percent of modification ≥70%) | 
14 | C=CC(=O)N1CC[C@@H](N(CC)c2nc(OC[C@@H]3C[C@@H](OC)CN3C)nc3cc(-c4ccc(F)c5sc(N)c(C#N)c45)c(F)cc23)[C@H]1C [Compound 140] | < 100 | A (percent of modification ≥70%) | 
15 | C=CC(=O)N1CC[C@@H](N(CC)c2nc(OC[C@@H]3C[C@@H](OC)CN3C)nc3c(F)c(-c4ccc(F)c5sc(N)c(C#N)c45)c(C(F)(F)F)cc23)[C@H]1C (single isomer, unassigned) [Compound 117] |  | D (percent of modification <10%) | > 1000
16 | C=CC(=O)N1CC[C@@H](N(C)c2nc(OC[C@@H]3CCCN3C)nc3c(F)c(-c4nc(N)cc(C)c4C(F)(F)F)c(C(F)(F)F)cc23)[C@H]1C [Compound 122] | 100 to 1000 | A (percent of modification ≥70%) | 
17 | C=CC(=O)N1CC[C@@H](N(C)c2nc(OC[C@@]34CCCN3C[C@H](F)C4)nc3c(F)c(-c4ccc(F)c5sc(N)c(C#N)c45)ccc23)[C@H]1CC [Compound 4] | < 100 | A (percent of modification ≥70%) | 
18 | C=CC(=O)N1CC[C@@H](N(CC)c2nc(OC[C@]34CCCN3C[C@H](OC)C4)nc3c(F)c(-c4ccc(F)c5sc(N)c(C#N)c45)c(Cl)cc23)[C@H]1C [Compound 164] | < 100 | A (percent of modification ≥70%) | 
19 | C=CC(=O)N1CC[C@@H](N(CC)c2nc(OC[C@@H]3C[C@@H](OC)CN3C)nc3c(F)c(-c4ccc(F)c5sc(N)c(C#N)c45)c(C(F)(F)F)cc23)[C@H]1C (single isomer, unassigned) [Compound 116] |  | A (percent of modification ≥70%) | < 100
20 | C=CC(=O)N1CC[C@@H](N(C)c2nc(OC[C@@]34CCCN3C[C@H](F)C4)nc3c(F)c(-c4ccc(F)c5sc(N)c(C#N)c45)c(Cl)cc23)[C@H]1CC [Compound 19] | < 100 | C (10%≤percent of modification <50%) | 
21 | C=CC(=O)N1CC[C@@H](N(C)c2nc(OC[C@@H]3C[C@@H](OC)CN3C)nc3c(F)c(-c4ccc(F)c5sc(N)c(C#N)c45)c(C(F)(F)F)cc23)[C@H]1C (single isomer, unassigned) [Compound 174] |  | D (percent of modification <10%) | 100 to 1000
22 | C=CC(=O)N1CC[C@@H](N(CC)c2nc(OC[C@@H]3CCCN3C)nc3cc(-c4ccc(F)c5sc(N)c(C#N)c45)c(F)cc23)[C@H]1C [Compound 138] | < 100 | A (percent of modification ≥70%) | 
23 | C=CC(=O)N1CC[C@@H](N(C)c2nc(OC[C@H]3C[C@@H](OC)CN3C)nc3c(F)c(-c4ccc(F)c5sc(N)c(C#N)c45)c(C(F)(F)F)cc23)[C@H]1C (single isomer, unassigned) [Compound 175] |  | D (percent of modification <10%) | 100 to 1000
24 | C=CC(=O)N1CC[C@@H](N(CC)c2nc(OC[C@@H]3CC4(CC4)CN3C)nc3c(F)c(-c4ccc(F)c5sc(N)c(C#N)c45)c(Cl)cc23)[C@H]1C (atropisomer, axis not shown) [Compound 120] |  | A (percent of modification ≥70%) | < 100
25 | C=CC(=O)N1C[C@H](N(C)c2nc(OC[C@@]34CCCN3C[C@H](F)C4)nc3c(F)c(-c4ccc(F)c5sc(N)c(C#N)c45)c(C(F)(F)F)cc23)C[C@H]1C (atropisomer, axis not shown) [Compound 177] |  | D (percent of modification <10%) | 100 to 1000
